Experimental data reported in PubChem BioAssay (NCI).
“And” between values parts separate entries of the source, which are not always exact repeats. Equal values may be shown once.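 Method: 48-hour compound exposure of cells in 96-well plates, five concentrations, linear interpolation of endpoints. At the GI50, growth is halved. TGI is the concentration that stops growth completely.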

Columns and labels:
Experiment in all cases: growth of human tumour cells (NCI), 48 h
CAKI-1 renal = test system: CAKI-1 renal
HOP-62 NSCLC = test system: HOP-62 NSCLC
LOX IMVI melanoma = test system: LOX IMVI melanoma
NCI-H460 lung = test system: NCI-H460 lung
NCI/ADR-RES ovarian = test system: NCI/ADR-RES ovarian
RPMI-8226 leukemia = test system: RPMI-8226 leukemia
SF-268 CNS = test system: SF-268 CNS
SR leukemia = test system: SR leukemia
T-47D breast = test system: T-47D breast
OVCAR-4 ovarian = test system: OVCAR-4 ovarian

SMILES	TGI (CAKI-1 renal)	TGI (HOP-62 NSCLC)	TGI (LOX IMVI melanoma)	TGI (NCI-H460 lung)	TGI (NCI/ADR-RES ovarian) [µM]	TGI (RPMI-8226 leukemia)	TGI (SF-268 CNS)	TGI (SR leukemia) [µM]	TGI (T-47D breast) [µM]	TGI (OVCAR-4 ovarian)	GI50 (CAKI-1 renal) [µM]	GI50 (HOP-62 NSCLC) [µM]	GI50 (LOX IMVI melanoma) [µM]	GI50 (NCI-H460 lung) [µM]	GI50 (NCI/ADR-RES ovarian) [µM]	GI50 (OVCAR-4 ovarian)	GI50 (SF-268 CNS) [µM]	GI50 (SR leukemia) [µM]	GI50 (T-47D breast) [µM]
CCOC(=O)NC(Nc1ccc(C(=O)O)cc1)(C(F)(F)F)C(F)(F)F	> 100 µM	> 100 µM	> 100 µM	> 100 µM	> 100	> 100 µM	> 100 µM	> 100	> 100	–	–	–	–	–	–	–	–	–	–
CCOC(=O)CC1C(C(=O)OCC)=Cn2c([nH]c3cccc4cccc2c43)=C1C(=O)OCC (centres undefined)	> 100 µM	> 100 µM	> 100 µM	> 100 µM	> 100	> 100 µM	–	> 100	> 100	> 100 µM	–	–	–	–	–	–	–	–	–
COc1ccc(C2CC(c3cccc(Nc4ccncc4)c3)=NN2c2ccccc2)cc1 (centres undefined)	3.18 µM	5.81 µM	3.11 µM	3.34 µM	3.46	–	9.98 µM	5.59	5.83	3.62 µM	1.66	2.25	1.74	1.8	1.74	1.79 µM	2.91	2	2.3
CCCCCCCCCCCCCCCCOC[C@H](COC(c1ccccc1)(c1ccccc1)c1ccccc1)O[P+](=S)OC (some centres undefined)	> 100 µM	–	> 100 µM	> 100 µM	> 100	> 100 µM	> 100 µM	> 100	> 100	–	–	–	–	–	–	–	–	–	–
COc1cc(COC(=O)N(C)[C@@H](Cc2ccccc2)C(=O)O)c([N+](=O)[O-])cc1OC	–	> 100 µM	–	> 100 µM	> 100	> 100 µM	> 100 µM	–	> 100	–	–	–	–	–	–	–	–	–	–
CN(CC(=O)O)c1ncc2c(n1)-c1ccccc1CC2	> 100 µM	> 100 µM	> 100 µM	> 100 µM	> 100	> 100 µM	> 100 µM	> 100	–	> 100 µM	–	–	–	–	–	–	–	–	–
Cc1c(C)c2c(c(N)c1C#N)C(=O)N(NC(=S)Nc1ccccc1)C2=O	88.1 µM	–	–	> 100 µM	> 100	> 100 µM	> 100 µM	83.5	> 100	> 100 µM	–	–	–	–	–	–	–	–	–
O=C(O)C1C2OC(C(Br)C2Br)C1C(=O)O (centres undefined)	> 100 µM	> 100 µM	> 100 µM	> 100 µM	> 100	> 100 µM	> 100 µM	–	> 100	> 100 µM	–	–	–	–	–	–	–	–	–
FC(F)(Sc1ncccn1)c1nc2ccccc2o1	> 100 µM	> 100 µM	–	> 100 µM	> 100	> 100 µM	> 100 µM	> 100	> 100	> 100 µM	–	–	–	–	–	–	–	–	–
C=C(C)C1CCC2(C)C1CCC1(C)C2CCC2C3(C)C4OC(OC4=O)C(C)(C)C3CCC21C (centres undefined)	> 100 µM	> 100 µM	> 100 µM	> 100 µM	> 100	> 100 µM	> 100 µM	> 100	> 100	–	–	–	–	–	–	–	–	–	–
CCCCCCCCCCCCCCCC[N+](C)(C)CCl	8.74 µM	6.69 µM	–	4.74 µM	49	5.16 µM	9.38 µM	–	23.6	8.44 µM	–	–	–	–	–	–	–	–	–
CC1(O)CC2C(CC1SCc1ccccc1)C2(C)C (centres undefined)	32 µM and 25.2 µM	57.9 µM and 30.5 µM	29.3 µM and 31.5 µM	57.8 µM and 27.7 µM	–	44.9 µM and 51.1 µM	54.9 µM and 42 µM	–	–	> 100 µM and 29.3 µM	–	–	–	–	–	52.8 µM and 15.6 µM	–	–	–
Fc1nc(Sc2ncnc3nc[nH]c23)nc(-c2c3ccccc3c3sc4ccccc4n23)n1	> 100 µM	> 100 µM	> 100 µM	> 100 µM	> 100	> 100 µM	> 100 µM	–	> 100	> 100 µM	–	–	–	–	–	–	–	–	–
Nc1ccc2c3c1cccc3c(=O)n1c3ccc(Cc4ccc5c(c4)nc4c6ccc(N)c7cccc(c(=O)n54)c76)cc3nc21	> 100 µM	> 100 µM	> 100 µM	> 100 µM	> 100	> 100 µM	–	> 100	–	> 100 µM	–	–	–	–	–	–	–	–	–
O=C(Nc1nnc(-c2ccccc2)o1)C(SC(=S)N1CCCC1)c1ccccc1 (centres undefined)	> 100 µM	> 100 µM	41.4 µM	62.3 µM	60.1	> 100 µM	–	> 100	> 100	> 100 µM	–	–	–	–	–	–	–	–	–
CC(CSc1nc2c(c(=N)n1-c1ccccc1)c(=S)n(-c1ccccc1)c(=S)n2-c1ccccc1)CN(C)C (centres undefined)	2.97 µM	3.62 µM	2.57 µM	4.14 µM	11.8	1.4 µM	3.24 µM	0.938	–	3.2 µM	–	–	–	–	–	–	–	–	–
O=C(CN1CCCC1)Nc1ccc2c(c1)C1Oc3ccccc3CC1CO2 (centres undefined)	> 100 µM	45.5 µM	44.5 µM	–	> 100	78.9 µM	> 100 µM	89.6	> 100	–	–	–	–	–	–	–	–	–	–
CC1(c2ccc(Cl)cc2)c2ccccc2C(=O)N1CCCN1C(=O)c2ccccc2C1=O (centres undefined)	> 100 µM	> 100 µM	47.5 µM	–	76.1	> 100 µM	> 100 µM	> 100	> 100	> 100 µM	–	–	–	–	–	–	–	–	–
Cc1cc(C)c(C2=NO[C@@H]3[C@H]2C(=O)C=C2N(Cc4ccccc4)CCO[C@@]23O)c(C)c1	> 100 µM	> 100 µM	> 100 µM	> 100 µM	> 100	> 100 µM	> 100 µM	–	–	> 100 µM	–	–	–	–	–	–	–	–	–
CN(Cc1ccccc1)C(=S)S	> 100 µM	> 100 µM	> 100 µM	> 100 µM	> 100	–	> 100 µM	59.7	> 100	> 100 µM	–	–	–	–	–	–	–	–	–
Cc1cc(S(=O)(=O)NC2=NCc3c(F)cccc3N2)c(S)cc1Cl	> 100 µM	–	> 100 µM	> 100 µM	> 100	> 100 µM	> 100 µM	> 100	> 100	> 100 µM	–	–	–	–	–	–	–	–	–
Cc1cn([C@H]2CN(O)C[C@@H](CO)O2)c(=O)[nH]c1=O	> 100 µM	> 100 µM	–	> 100 µM	–	> 100 µM	> 100 µM	–	> 100	> 100 µM	–	–	–	–	–	–	–	–	–
CN(C)CCCNC(=O)N/N=C/c1ccccn1	–	> 10 µM	> 10 µM	> 10 µM	> 10	> 10 µM	> 10 µM	> 10	> 10	> 10 µM	–	–	–	–	–	–	–	–	–
